Assay results reported in US20010008947A1, “2-AMINO-4-PHENYL-4-OXO-BUTYRIC ACID DERIVATIVES” (priority 1993, published 2001).
Structures can show the parent of a compound that is named as a salt.

Legend:
rat brain kynureninase [1] = target: T1, rat brain kynureninase (Rattus norvegicus, UniProt P70712); experiment: Kynureninase assay in the rat brain; format: biochemical; details: rat brain homogenate; for inhibition at 100 µM: read-out: % INHIBITION AT 100 μM Kyn-Ase
T1 construct: Partial purification of rat brain kynureninase was performed according to Lee et al; from tissue; host or cells: rat brain, partially purified enzyme
T1 sequence (P70712 1-464): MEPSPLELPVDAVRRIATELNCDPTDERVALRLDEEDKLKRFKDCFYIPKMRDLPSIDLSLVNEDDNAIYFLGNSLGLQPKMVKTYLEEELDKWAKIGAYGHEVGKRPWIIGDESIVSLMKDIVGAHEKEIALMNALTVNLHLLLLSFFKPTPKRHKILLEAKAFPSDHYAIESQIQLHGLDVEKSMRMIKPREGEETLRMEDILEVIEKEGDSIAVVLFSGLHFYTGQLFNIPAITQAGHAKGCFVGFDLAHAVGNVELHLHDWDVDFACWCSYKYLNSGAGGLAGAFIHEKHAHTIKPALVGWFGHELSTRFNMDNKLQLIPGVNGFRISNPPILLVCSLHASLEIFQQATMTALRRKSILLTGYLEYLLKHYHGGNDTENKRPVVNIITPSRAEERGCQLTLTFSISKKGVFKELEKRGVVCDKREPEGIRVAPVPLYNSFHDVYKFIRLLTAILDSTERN
Procedure: Kynureninase assay in the rat brain
Partial purification of rat brain kynureninase was performed according to Lee et al., “Isolation and characterization of kynureninase from rat liver”, advances in Tryptophan Research, 431-434, 1992.
To perform rat brain kynureninase assay, a reaction mixture (final volume 0.2 ml) containing 100 mM tris-HCl, pH 8.0, […] pyridoxal phosphate, […] kynurenine, 20 μl of partially purified enzyme and 100 μM of inhibitor solution was prepared.
The reaction was carried out at 37° C. for 3 hours and then stopped by adding 50 μl of perchloric acid 2N. After centrifugation at 11000 rpm for 15 min., anthranilic acid in the supernatant was determined fluorimetrically in a HPLC system (as described for the liver method).

kynurenine-3-hydroxylase [2] = target: T2, kynurenine-3-hydroxylase (Rattus norvegicus, UniProt O88867); experiment: Kynurenine-3-hydroxylase assay in the rat brain; format: biochemical; details: rat brain homogenate; for inhibition at 100 µM: read-out: % INHIBITION AT 100 μM Kyn-3-OH-Ase; for IC50: read-out: IC50 Kyn-3-OH-Ase
T2 construct: Brain was homogenized in ice-cold 0.32 M sucrose and centrifugated at 12000×g; from tissue; host or cells: rat brain homogenate, washed pellet suspended
Procedure: Kynurenine-3-hydroxylase assay in the rat brain
Kynurenine-3-hydroxylase activity was quantified by the conversion of L-kynurenine to 3-hydroxykynurenine. Brain was homogenized in ice-cold 0.32 M sucrose and centrifugated at 12000×g, for 30 min at 4 C. The pellet was washed three times with 0.32 M sucrose by centrifugation and suspended in 0.14 M KCl in 20 mM K-phosphate buffer pH 7 (1 g tissue in 2 ml buffer).
The reaction mixture contained: 75 μl of suspended homogenate; 100 μl of substrate solution containing 50 mM K-phosphate buffer pH 7.5, 2 mM MgCl2, 0.4 mM NADPH and 50 μM L-kynurenine (final concentration); 25 μl of different concentrations of inhibitor solutions.
The reaction was stopped by addition of 200 μl of 1 M HClO4 after 60 min. incubation.
3-hydroxykynurenine formed was quantified by HPLC with coulometric detection (working voltage was +0.2 V). The column was a 10 cm C18 reversed phase (3 μm). The mobile phase consisted of 950 ml distilled water. 20 ml acetonitrile, 9 ml triethylamine, 5.9 ml phosphoric acid, 100 mg sodium EDTA and 1.5 g heptanesulfonic acid. The flow-rate was 1 ml/min.

kynureninase = target: T3, kynureninase (Rattus norvegicus, UniProt P70712); experiment: Kynureninase inhibition in rat liver homogenates; format: biochemical; details: rat liver homogenate; for inhibition at 1000 µM: 1 mM
T3 construct: from tissue; host or cells: rat liver homogenate
T3 sequence (P70712 1-464): T1 sequence (P70712 1-464)
Procedure: The efficacy of the compounds of the invention in the inhibition of kynureninase has been evaluated in rat liver homogenates as described by, Takikawa O. et al. in J. Biol. Chem. 261 (8), 3648-3652 - 1986), with slight modifications.
HPLC method was essentially Takikawa's method, using the same Fluorimetric detection (ex. 313 nm, em. 420 nm) but changing the column (Nova-Pak C18 3.9×300 mm) and the mobile phase (phosphate buffer 80 mM, 13% CH.CN pH 2.5).

rat brain kynureninase [3] = target: T1, rat brain kynureninase; experiment: Kynureninase assay in the rat brain; format: biochemical; details: rat brain homogenate; read-out: IC50 Kyn-Ase
kynurenine-3-hydroxylase [4] = target: T2, kynurenine-3-hydroxylase; experiment: Kynurenine-3-hydroxylase assay in the rat liver; format: biochemical; details: rat liver homogenate
Procedure: Kynurenine-3-hydroxylase assay in the rat liver
Rat liver is homogenized in cold 0.32 M sucrose.
The homogenates are centrifuged at 12000×rpm for 30 minutes at 4° C. The precipitate, after having been washed three times with 0.32 M sucrose by means of centrifugation (12000×rpm for 30 min), is resuspended in 20 mM K-buffer+0.14 M KCl at pH 7 (1 g of liver in 6.5 ml ).
The reaction at 37° C. is terminated by the addition of 200 μl of […] after 10 minutes of incubation.
The concentrations of 3-hydroxy-kynurenine, produced in the absence or presence of the tested molecules are determined by HPLC with coulometric detection (pot. +0.20 V), using for the separation a reversed phase column C18, 10 cm long and a 3 μm particulate. The composition of the mobile phase was: 950 ml of water for HPLC, 20 ml of acetonitrile, 9 ml of triethylamine, 5.9 ml of phosphoric acid, 100 mg of Na EDTA and 1.5 g of heptanesulfonic acid.

T2 sequence (O88867 whole entry): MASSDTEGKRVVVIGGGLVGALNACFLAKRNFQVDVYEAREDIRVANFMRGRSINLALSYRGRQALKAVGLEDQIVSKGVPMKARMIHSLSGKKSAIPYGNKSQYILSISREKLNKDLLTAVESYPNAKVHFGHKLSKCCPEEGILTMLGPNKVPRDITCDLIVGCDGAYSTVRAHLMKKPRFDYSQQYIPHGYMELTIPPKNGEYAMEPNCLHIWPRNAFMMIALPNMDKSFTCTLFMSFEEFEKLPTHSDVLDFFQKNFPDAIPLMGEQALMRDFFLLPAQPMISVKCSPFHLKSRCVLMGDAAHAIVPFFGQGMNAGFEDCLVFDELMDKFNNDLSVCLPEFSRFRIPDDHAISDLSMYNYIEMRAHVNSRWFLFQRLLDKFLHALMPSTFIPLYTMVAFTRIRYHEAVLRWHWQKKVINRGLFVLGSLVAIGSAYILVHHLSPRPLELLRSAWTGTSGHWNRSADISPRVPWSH

Row | melting point | inhibition at 100 µM (rat brain kynureninase [1]) | inhibition at 100 µM (kynurenine-3-hydroxylase [2]) | IC50 (kynurenine-3-hydroxylase [2]) | Structure (SMILES) | also measured
1 | 198 to 200 °C (dec.) | 60% | 93% | 0.4 µM | NC(CC(=O)c1cccc(Cl)c1)C(=O)O (racemic) [FCE 28752, (R,S)-2-amino-4-(3′-chlorophenyl)-4-oxo-butyric acid] | –
2 | 194 to 195 °C (dec.) | 0% | 93% | 0.9 µM | NC(CC(=O)c1cccc(F)c1)C(=O)O (racemic) [FCE 28764, (R,S)-2-amino-4-(3′-fluorophenyl)-4-oxo-butyric acid] | –
3 | 115 °C (dec.) | 86% | 4% | – | COc1ccccc1C(=O)CC(N)C(=O)O (racemic) [FCE 27384, (R,S)-2-amino-4-(2′-methoxyphenyl)-4-oxo-butyric acid] | IC50 (rat brain kynureninase [3]): 6 µM; inhibition at 100 µM (kynurenine-3-hydroxylase [4]; 100 μM): 3%; inhibition at 1000 µM (kynurenine-3-hydroxylase [4]; 1 mM): 30%; inhibition at 100 µM (kynureninase): 96%; inhibition at 1000 µM (kynureninase): 97%
4 | 160 °C (dec.) | 17% | 79% | 30 µM | COc1ccc(C(=O)CC(N)C(=O)O)cc1 (racemic) [FCE 28628, (R,S)-2-amino-4-(4′-methoxyphenyl)-4-oxo-butyric acid] | –
5 | 130 °C (dec.) | – | – | – | COc1ccccc1C(=O)C[C@H](N)C(=O)O [FCE 28626, (S)-2-amino-4-(2′-methoxyphenyl)-4-oxo-butyric acid] | –

Further lines, the molecule ahead of its results:

Row | Structure (SMILES) | melting point | inhibition at 100 µM (rat brain kynureninase [1]) | inhibition at 100 µM (kynurenine-3-hydroxylase [2]) | IC50 (kynurenine-3-hydroxylase [2]) | also measured
6 | COc1ccc(Cl)cc1C(=O)CC(N)C(=O)O (racemic) (as salt: hydrochloride) [FCE 28836, (R,S)-2-amino-4-(2′-methoxy-5′-chlorophenyl-4-oxo-butyric acid] | 212 to 213 °C | – | – | – | –
7 | COc1cccc(C(=O)C[C@@H](N)C(=O)O)c1 (racemic) [FCE 28629, (R,S)-2-amino-4-(3′-methoxyphenyl)-4-oxo-butyric acid] | – | – | – | – | % INHIBITION AT 100 μM Kyn-Ase (rat brain kynureninase [1]): 54%; % INHIBITION AT 100 μM Kyn-3-OH-Ase (kynurenine-3-hydroxylase [2]): 29%
8 | NC(CC(=O)c1ccccc1)C(=O)O (racemic) [FCE 27377, (R,S)-2-amino-4-phenyl-4-oxo-butyric acid] | – | 35.6% | – | – | inhibition at 100 µM (kynureninase): 46%; inhibition at 1000 µM (kynureninase): 86%
9 | COc1ccc(F)cc1C(=O)C[C@@H](N)C(=O)O (racemic) [FCE 28766, (R,S)-2-amino-4-(2′-methoxy-5′-fluoropheryl)-4-oxo-butyric acid] | – | – | – | – | % INHIBITION AT 100 μM Kyn-Ase (rat brain kynureninase [1]): 81%; % INHIBITION AT 100 μM Kyn-3-OH-Ase (kynurenine-3-hydroxylase [2]): 2%
10 | N[C@H](CC(=O)c1cccc(C(F)(F)F)c1)C(=O)O (racemic) [FCE 28680, (R,S)-2-amino-4-(3′-trifluoromethylphenyl)-4-oxo-butyric acid] | – | – | – | – | % INHIBITION AT 100 μM Kyn-Ase (rat brain kynureninase [1]): 67%; % INHIBITION AT 100 μM Kyn-3-OH-Ase (kynurenine-3-hydroxylase [2]): 17%
11 | NC(CC(=O)c1ccc(Cl)cc1)C(=O)O (racemic) [FCE 28751, (R,S)-2-amino-4-(4′-chlorophenyl)-4-oxo-butyric acid] | 204 to 206 °C | 0% | 85% | 7 µM | –
12 | N[C@H](CC(=O)c1ccccc1)C(=O)O [FCE 28469, (R)-2-amino-4-phenyl-4-oxo-butyric acid] | – | 19% | – | – | –
13 | NC(CC(=O)c1ccc(Cl)c(Cl)c1)C(=O)O (racemic) [FCE 28833, (R,S)-2-amino-4-(3′,4′-dichlorophenyl)-4-oxo-butyric acid] | – | – | 99% | 0.2 µM | –
14 | N[C@H](CC(=O)c1ccccc1F)C(=O)O (racemic) [FCE 28631, (R,S)-2-amino-4-(2′-fluorophenyl)-4-oxo-butyric acid] | – | – | – | – | % INHIBITION AT 100 μM Kyn-Ase (rat brain kynureninase [1]): 52%; % INHIBITION AT 100 μM Kyn-3-OH-Ase (kynurenine-3-hydroxylase [2]): 47%
15 | COc1ccc(Cl)cc1C(=O)CC(N)C(=O)O (racemic) [FCE 28836, (R,S)-2-amino-4-(2′-methoxy-5′-chlorophenyl-4-oxo-butyric acid] | – | – | 73% | 33 µM | –
16 | Cc1ccccc1C(=O)CC(N)C(=O)O (racemic) [FCE 28630, (R,S)-2-amino-4-(2′-methylphenyl)-4-oxo-butyric acid] | 192 to 193 °C (dec.) | 40% | 81% | 23 µM | –
17 | N[C@H](CC(=O)c1ccccc1Cl)C(=O)O (racemic) [FCE 28753, (R,S)-2-amino-4-(2′-chloroohenyl)-4-oxo-butyric acid] | – | – | – | – | % INHIBITION AT 100 μM Kyn-Ase (rat brain kynureninase [1]): 71%; % INHIBITION AT 100 μM Kyn-3-OH-Ase (kynurenine-3-hydroxylase [2]): 22%
18 | N[C@@H](CC(=O)c1ccccc1)C(=O)O [FCE 28468, (S)-2-amino-4-phenyl-4-oxo-butyric acid] | – | 61% | – | – | –
